In patent US20020031795A1, “Nitrocoumarins for detecting all micro-organisms” (priority 1998, published 2002):
“Also recorded” adds a separate entry of the source.

Tests used:
Type in all cases: cell-based
[1] = test system: Escherichia coli (NCTC 10418); test: Growth of E. coli in Mueller-Hinton broth in the presence of nitrocoumarins (optical density 690 nm)
Procedure: A sample of the 7-nitrocoumarin derivative is dissolved in 4 ml of hot, distilled water. The mass dissolved to make the stock solution is such that the final concentration of the compound in the assay is 0.105 mmol/l. This solution is added to 96 ml of Mueller-Hinton broth and the mixture is sterile-filtered.
(§1) The E. coli was grown for 24 hours at 35° C. on Columbia agar supplemented with sheep blood. The bacteria were then resuspended in sterile, distilled water and their density was adjusted to 0.5 on the MacFarland scale (i.e. about 10^8 cells/ml). This suspension was then diluted 100-fold in sterile Mueller-Hinton broth (i.e. to a final density of about 10^6 cells/ml).
(§2) Fifty microliters of each nitrocoumarin solution plus 50 μl of bacterial suspension were then added to the wells of a microtiter plate. The plates were incubated at 35° C. and the optical density and fluorescence of each well was read every 30 min for a total of 4 hours. Optical density (690 nm) readings were made using an Anthos 2001 spectrophotometer (Labtech International Limited), and fluorescence (excitation at 365 nm and emission at 440 nm) readings were made on a Biolite F1 2001 fluorometer (Labtech International Limited).
The effect of the concentration of 7-nitrocoumarin-3-carboxylic acid on the sensitivity of the assay to detect E. coli (NCTC strain 10418) was investigated at concentrations of the indicator ranging from 0 to 0.262 mmol/l. All other conditions were identical to those described in section A above.

Shigella sonnei = test: Reduction of the indicator by wild Enterobacteriaceae strain (fluorescence); conditions: 0.17 mmol/l
Procedure: as §1, §2
(§3) This experiment was designed to investigate whether or not it would be possible to detect Enterobacteriaceae other than E. coli using 7-nitrocoumarin-3-carboxylic acid. The conditions for this experiment were similar to those described for the first experiment (section A).
(§4) Five wild strains belonging to the species Citrobacter diversus, Enterobacter agglomerans, Hafnia alvei, Morganella morganii and Shigella sonnei were tested

Morganella morganii = test: as above; conditions: 0.17 mmol/l
Procedure: as §1, §2, §3, §4

Enterobacter agglomerans = test: as above; conditions: 0.17 mmol/l
Procedure: as §1, §2, §3, §4

Citrobacter diversus = test: as above; conditions: 0.17 mmol/l
Procedure: as §1, §2, §3, §4

Hafnia alvei = test: as above; conditions: 0.17 mmol/l
Procedure: as §1, §2, §3, §4

SMILES: O=C(O)c1cc2ccc([N+](=O)[O-])cc2oc1=O [7-nitrocoumarin-3-carboxylic acid]
- Optical density (690 nm) ([1]; 0.005 mmol/l, 0 min): 0.000
- Optical density (690 nm) ([1]; 0.005 mmol/l, 30 min): 0.000
- Optical density (690 nm) ([1]; 0.005 mmol/l, 60 min): 0.003
- Optical density (690 nm) ([1]; 0.005 mmol/l, 90 min): 0.011
- Optical density (690 nm) ([1]; 0.005 mmol/l, 120 min): 0.034
- Optical density (690 nm) ([1]; 0.005 mmol/l, 150 min): 0.090
- Optical density (690 nm) ([1]; 0.005 mmol/l, 180 min): 0.155
- Optical density (690 nm) ([1]; 0.005 mmol/l, 210 min): 0.246
- Optical density (690 nm) ([1]; 0.005 mmol/l, 240 min): 0.411
- Optical density (690 nm) ([1]; 0.013 mmol/l, 0 min): 0.000
- Optical density (690 nm) ([1]; 0.013 mmol/l, 30 min): 0.000
- Optical density (690 nm) ([1]; 0.013 mmol/l, 60 min): 0.003
- Optical density (690 nm) ([1]; 0.013 mmol/l, 90 min): 0.011
- Optical density (690 nm) ([1]; 0.013 mmol/l, 120 min): 0.032
- Optical density (690 nm) ([1]; 0.013 mmol/l, 150 min): 0.088
- Optical density (690 nm) ([1]; 0.013 mmol/l, 180 min): 0.149
- Optical density (690 nm) ([1]; 0.013 mmol/l, 210 min): 0.233
- Optical density (690 nm) ([1]; 0.013 mmol/l, 240 min): 0.371
- Optical density (690 nm) ([1]; 0.026 mmol/l, 0 min): 0.000
- Optical density (690 nm) ([1]; 0.026 mmol/l, 30 min): 0.001
- Optical density (690 nm) ([1]; 0.026 mmol/l, 60 min): 0.004
- Optical density (690 nm) ([1]; 0.026 mmol/l, 90 min): 0.011
- Optical density (690 nm) ([1]; 0.026 mmol/l, 120 min): 0.032
- Optical density (690 nm) ([1]; 0.026 mmol/l, 150 min): 0.079
- Optical density (690 nm) ([1]; 0.026 mmol/l, 180 min): 0.201
- Optical density (690 nm) ([1]; 0.026 mmol/l, 210 min): 0.290
- Optical density (690 nm) ([1]; 0.026 mmol/l, 240 min): 0.436
- Optical density (690 nm) ([1]; 0.052 mmol/l, 0 min): 0.000
- Optical density (690 nm) ([1]; 0.052 mmol/l, 30 min): 0.001
- Optical density (690 nm) ([1]; 0.052 mmol/l, 60 min): 0.003
- Optical density (690 nm) ([1]; 0.052 mmol/l, 90 min): 0.011
- Optical density (690 nm) ([1]; 0.052 mmol/l, 120 min): 0.031
- Optical density (690 nm) ([1]; 0.052 mmol/l, 150 min): 0.082
- Optical density (690 nm) ([1]; 0.052 mmol/l, 180 min): 0.153
- Optical density (690 nm) ([1]; 0.052 mmol/l, 210 min): 0.225
- Optical density (690 nm) ([1]; 0.052 mmol/l, 240 min): 0.408
- Inhibitory effect on the growth of E. coli (in words) ([1]; 0.105 mmol/l): no retarded growth; also recorded: does not inhibit E. coli growth
- Optical density (690 nm) ([1]; 0.105 mmol/l, 0 min): 0.000
- Optical density (690 nm) ([1]; 0.105 mmol/l, 30 min): 0.000
- Optical density (690 nm) ([1]; 0.105 mmol/l, 60 min): 0.002
- Optical density (690 nm) ([1]; 0.105 mmol/l, 90 min): 0.008
- Optical density (690 nm) ([1]; 0.105 mmol/l, 120 min): 0.026
- Optical density (690 nm) ([1]; 0.105 mmol/l, 150 min): 0.068
- Optical density (690 nm) ([1]; 0.105 mmol/l, 180 min): 0.164
- Optical density (690 nm) ([1]; 0.105 mmol/l, 210 min): 0.227
- Optical density (690 nm) ([1]; 0.105 mmol/l, 240 min): 0.416
- Optical density (690 nm) ([1]; 0.157 mmol/l, 0 min): 0.000
- Optical density (690 nm) ([1]; 0.157 mmol/l, 30 min): −0.001
- Optical density (690 nm) ([1]; 0.157 mmol/l, 60 min): 0.002
- Optical density (690 nm) ([1]; 0.157 mmol/l, 90 min): 0.009
- Optical density (690 nm) ([1]; 0.157 mmol/l, 120 min): 0.027
- Optical density (690 nm) ([1]; 0.157 mmol/l, 150 min): 0.073
- Optical density (690 nm) ([1]; 0.157 mmol/l, 180 min): 0.151
- Optical density (690 nm) ([1]; 0.157 mmol/l, 210 min): 0205
- Optical density (690 nm) ([1]; 0.157 mmol/l, 240 min): 0.372
- Optical density (690 nm) ([1]; 0.210 mmol/l, 0 min): 0.000
- Optical density (690 nm) ([1]; 0.210 mmol/l, 30 min): 0.000
- Optical density (690 nm) ([1]; 0.210 mmol/l, 60 min): 0.003
- Optical density (690 nm) ([1]; 0.210 mmol/l, 90 min): 0.010
- Optical density (690 nm) ([1]; 0.210 mmol/l, 120 min): 0.027
- Optical density (690 nm) ([1]; 0.210 mmol/l, 150 min): 0.072
- Optical density (690 nm) ([1]; 0.210 mmol/l, 180 min): 0.138
- Optical density (690 nm) ([1]; 0.210 mmol/l, 210 min): 0.187
- Optical density (690 nm) ([1]; 0.210 mmol/l, 240 min): 0.346
- Optical density (690 nm) ([1]; 0.262 mmol/l, 0 min): 0.000
- Optical density (690 nm) ([1]; 0.262 mmol/l, 30 min): 0.000
- Optical density (690 nm) ([1]; 0.262 mmol/l, 60 min): 0.002
- Optical density (690 nm) ([1]; 0.262 mmol/l, 90 min): 0.009
- Optical density (690 nm) ([1]; 0.262 mmol/l, 120 min): 0.027
- Optical density (690 nm) ([1]; 0.262 mmol/l, 150 min): 0.069
- Optical density (690 nm) ([1]; 0.262 mmol/l, 180 min): 0.144
- Optical density (690 nm) ([1]; 0.262 mmol/l, 240 min): 0.346
- Effect of the concentration on E. coli growth (in words) ([1]; concentrations from 0 to 0.262 mmol/l): no significant effect
- Fluorescent signal (Shigella sonnei; 0 min): 0
- Fluorescent signal (Shigella sonnei; 30 min): −9
- Fluorescent signal (Shigella sonnei; 60 min): 15
- Fluorescent signal (Shigella sonnei; 90 min): 52
- Fluorescent signal (Shigella sonnei; 120 min): 162
- Fluorescent signal (Shigella sonnei; 150 min): 434
- Fluorescent signal (Shigella sonnei; 180 min): 1108
- Fluorescent signal (Shigella sonnei; 210 min): 3095
- Fluorescent signal (Shigella sonnei; 240 min): 8567
- Fluorescent signal (Morganella morganii; 0 min): 0
- Fluorescent signal (Morganella morganii; 30 min): −42
- Fluorescent signal (Morganella morganii; 60 min): −24
- Fluorescent signal (Morganella morganii; 90 min): −15
- Fluorescent signal (Morganella morganii; 120 min): 31
- Fluorescent signal (Morganella morganii; 150 min): 95
- Fluorescent signal (Morganella morganii; 180 min): 403
- Fluorescent signal (Morganella morganii; 210 min): 2170
- Fluorescent signal (Morganella morganii; 240 min): 8128
- Fluorescent signal (Enterobacter agglomerans; 0 min): 0
- Fluorescent signal (Enterobacter agglomerans; 30 min): −15
- Fluorescent signal (Enterobacter agglomerans; 60 min): −3
- Fluorescent signal (Enterobacter agglomerans; 90 min): 9
- Fluorescent signal (Enterobacter agglomerans; 120 min): 74
- Fluorescent signal (Enterobacter agglomerans; 150 min): 199
- Fluorescent signal (Enterobacter agglomerans; 180 min): 501
- Fluorescent signal (Enterobacter agglomerans; 210 min): 1246
- Fluorescent signal (Enterobacter agglomerans; 240 min): 4099
- Fluorescent signal (Citrobacter diversus; 0 min): 0
- Fluorescent signal (Citrobacter diversus; 30 min): 3
- Fluorescent signal (Citrobacter diversus; 60 min): 3
- Fluorescent signal (Citrobacter diversus; 90 min): 34
- Fluorescent signal (Citrobacter diversus; 120 min): 92
- Fluorescent signal (Citrobacter diversus; 150 min): 281
- Fluorescent signal (Citrobacter diversus; 180 min): 546
- Fluorescent signal (Citrobacter diversus; 210 min): 1209
- Fluorescent signal (Citrobacter diversus; 240 min): 5393
- Fluorescent signal (Hafnia alvei; 0 min): 0
- Fluorescent signal (Hafnia alvei; 30 min): −24
- Fluorescent signal (Hafnia alvei; 60 min): −30
- Fluorescent signal (Hafnia alvei; 90 min): 0
- Fluorescent signal (Hafnia alvei; 120 min): 40
- Fluorescent signal (Hafnia alvei; 150 min): 122
- Fluorescent signal (Hafnia alvei; 180 min): 260
- Fluorescent signal (Hafnia alvei; 210 min): 775
- Fluorescent signal (Hafnia alvei; 240 min): 2048
